Source: patent US7250269B2, “Composition for assaying glycoprotein” (Asahi Kasei Pharma Corporation, priority 2001, dated 2007)
Where two headings read alike, the source gives them in different places.

Experiments:
[1] = test system: Protease type-XXIV; assay: Screening of globulin component-selective protease inhibitors (HSA substrate with/without γ-globulin); assay type: biochemical, Bacillus; details: additive concentration 1.0%; control 23.8
Text: Using protease type-XXIV (manufactured by Sigma-Aldrich Co.) having high reactivity with the HSA substrate solution, components that decrease the protease reaction with the above globulin substrate solutions were screened based on the HSA substrate solution.
In the R-1 proteolytic reagent, as the deoxycholic acid amide, bisgluconamidopropyldeoxycholamide was used; as the cholic acid amide, 3-[(3-cholamidopropyl)dimethvlammonio]propane sulfonic acid, 3-[(3-cholamidopropyl)dimethylammonio]-2-hydroxypropane sulfonic acid, or bisgluconamidopropylcholamide was used; as the quaternary ammonium salt, benzyltriethylan chloride or benzyltri-n-butylammonium chloride was used; and as quatemary ammonium salt-type cationic surfactant, lauryltrimethylammonium chloride or lauryldimethylamine oxide was used.
• 1. HSA substrate solution: Albumin Human: 40 mg/ml, GA %=10.5% [manufactured by Wako Pure Chemical Industries, Ltd., the albumin concentration in the substrate solution was assayed using an albumin assay kit (albumin II-HA Test Wako; manufactured by Wako Pure Chemical Industries, Ltd.). GA % was assayed using a glycated albumin analyzer (GAA-2000, manufactured by ARKRAY, Inc.). • 2. γ-globulin addition substrate solution, 17.0 mg/ml of γ-globulin [γ-Globulins Human (manufactured by Sigma-Aldrich Co.), Fructosamine value=34 μM] was added to the above HSA substrate solution. <Reaction Procedure>
Absorbances at a wavelength of 546 nm were measured before and after the addition of R-2. The difference of the two measurements was regarded as the absorbance change. The same procedure was conducted using distilled water instead of the substrate to prepare a blank sample. In addition, a reaction solution without the addition of the globulin-selective protease inhibitor was used as a control.
ΔA (HSA) was calculated by subtracting the absorbance change of the blank sample from the absorbance change obtained for the HSA substrate solution. ΔA(+γ-globulin) was calculated by subtracting the absorbance change of the blank sample from the absorbance change obtained for the substrate solution to which γ-globulin was added. Effect of γ-globulin addition=(ΔA(+γ-globulin)−ΔA(HSA))/ΔA(HSA)×100(%)

[2] = test system: R-FOD-II; assay: Stabilization of enzyme reacting at least with glycated amino acid; assay type: biochemical; details: for decrease in performance of glycated amino acid assay reagent: storage for four weeks at 37° C.; for stabilization effect on glycated amino acid assay reagent (relative sensitivity): without stabilizer 30%; for storage stability effect: stored in a liquid state in a refrigerator
Description: 8 μl of a sample was added to 240 μl of the proteolytic reagent incubated at 37° C. […] A relative sensitivity for the experiment using the reagent containing a stabilizer to the experiment using the reagent not containing a stabilizer was calculated assuming that ΔA0 obtained using the reagent not containing a stabilizer and used without storing is 100%.

[3] = target: T1, albumin (Homo sapiens, UniProt P02768); assay: Albumin assay by BCP method after pretreatment with protein denaturing agent and/or compound having S—S bond; details: for albumin value by BCP method, sample GA: immunological method 8.1, no pretreatment 7.9; for albumin value by BCP method, sample NGA: immunological method 37.5, no pretreatment 36.1; for albumin value by BCP method, sample Blood serum of patients: immunological method 40.5, no pretreatment 36.2
T1 construct: from tissue; host or cells: human blood serum (healthy persons, patients; albumin purified with boric acid-immobilized resin)
Description: The following compounds 1)-9) were used as the protein denaturing agent and/or the compound having S—S bond in the R-1 pretreatment reagent. • 1) 6,6′-dithiodinicotinic acid: 100 mM • 2) 3,3′-dithiodipropionic acid: 100 mM • 3) 2,2′-dithiodibenzoic acid: 100 mM • 4) 4,4′-dithiodimorpholine: 100 mM • 5) DTNB (50 mM) • 6) DDD (33 mM) • 7) 2-PDS (25 mM) • 8) 4-PDS (50 mM) • 9) SDS (0.3%) • 1)-5) manufactured by Wako Pure Chemical Industries, Ltd. • 6)-9) manufactured by Dojindo Laboratories <Samples>
Glycated lbumin, non-glycated albumin, blood serum of healthy persons, and blood serum of patients were used as samples, and distilled water was used as a blank. Glycated albumin and non-glycated albumin were obtained from human blood serum, albumin was purified by known method and using a boric acid-immobilized resin.
2 μl of a sample was added to 160 μl of the pretreatment reagent incubated at 37° C. […] Absorbance at 600 nm was measured before the addition of the albumin coloring reagent and five minutes after the addition of the albumin coloring reagent. A calibration curve was prepared using distilled water and a sample with a known albumin concentration instead of the sample. A sample was separately assayed by an immune method using a latex reagent (LX reagent, Alb-II, manufactured by Eiken Chemical Co., Ltd.) as a control.

[4] = stored at 37° C. for two days, FIG. 6
[5] = pretreatment reagent at concentration of b299
[6] = pretreatment reagent at concentration of b299, immunological method 43.0, no pretreatment 38.4

T1 sequence (P02768 25-609): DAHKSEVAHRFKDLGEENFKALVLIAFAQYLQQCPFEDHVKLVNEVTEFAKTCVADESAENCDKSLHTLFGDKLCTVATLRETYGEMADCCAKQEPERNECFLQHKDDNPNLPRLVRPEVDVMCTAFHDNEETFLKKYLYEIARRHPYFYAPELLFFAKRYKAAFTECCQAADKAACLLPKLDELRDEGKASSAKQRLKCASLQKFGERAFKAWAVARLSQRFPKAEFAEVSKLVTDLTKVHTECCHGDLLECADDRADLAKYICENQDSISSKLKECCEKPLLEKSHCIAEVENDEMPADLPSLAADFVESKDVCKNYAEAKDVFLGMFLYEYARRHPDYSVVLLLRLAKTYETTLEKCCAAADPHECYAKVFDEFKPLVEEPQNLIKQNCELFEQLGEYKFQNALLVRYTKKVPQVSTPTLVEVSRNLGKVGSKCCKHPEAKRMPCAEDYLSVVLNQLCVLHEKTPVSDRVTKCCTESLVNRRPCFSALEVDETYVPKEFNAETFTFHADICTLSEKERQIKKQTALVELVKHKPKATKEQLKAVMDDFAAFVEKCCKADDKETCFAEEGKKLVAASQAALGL

With `CC(CCC(=O)NCCC[N+](C)(C)CC(O)CS(=O)(=O)[O-])C1CCC2C3C(O)CC4CC(O)CCC4(C)C3CC(O)C12C` (centres unmarked) [3-[3-cholamidopropyl)dimethylammonio]-2-hydroxypropane sulfonic acid] the “Effect of γ-globulin (%)” value [1] was 18.0%.

`C[C@H](CCC(=O)NCCC[N+](C)(C)CCCS(=O)(=O)[O-])[C@H]1CC[C@H]2[C@@H]3[C@H](O)C[C@@H]4C[C@H](O)CC[C@]4(C)[C@H]3C[C@H](O)[C@]12C` [3-[(3-cholamidopropyl)dimethylammonio]propane sulfonic acid] was tested, and the “Effect of γ-globulin (%)” value [1] was 17.9%.

`CCCC[N+](CCCC)(CCCC)Cc1ccccc1.[Cl-]` [Benzyltributylammonium chloride] was tested, and the “Effect of γ-globulin (%)” value [1] was 15.1%.

In the case of `CC[N+](CC)(CC)Cc1ccccc1.[Br-]` [Benzyltriethylammonium bromide], the “Effect of γ-globulin (%)” value [1] is reported as 22.9%.

In the case of `CC[N+](CC)(CC)Cc1ccccc1.[Cl-]` [Benzyltriethylammonium chloride], the “Effect of γ-globulin (%)” value [1] is reported as 16.5%.

`C[N+](C)(C)Cc1ccccc1.[Br-]` [Benzyltrimethylammonium bromide] was tested, and the “Effect of γ-globulin (%)” value [1] was 23.1%.

In the case of `C[N+](C)(C)Cc1ccccc1.[Cl-]` [Benzyltrimethylammonium chloride], the “Effect of γ-globulin (%)” value [1] is reported as 23.2%.

In the case of `C[C@H](CCC(=O)O)[C@H]1CC[C@H]2[C@@H]3[C@H](O)C[C@@H]4C[C@H](O)CC[C@]4(C)[C@H]3C[C@H](O)[C@]12C` [Cholic acid], the “Effect of γ-globulin (%)” value [1] is reported as 23.0%.

`C[C@H](N)C(=O)O` [L-alanine, L-Alanine] was tested, and the “decrease in performance of glycated amino acid assay reagent” value [2] was “almost no decrease in performance”, the “stabilization effect on glycated amino acid assay reagent (relative sensitivity)” value (“stabilization effect … (relative sensitivity)” below) [2, 4] was “stabilization effect” and the storage stability effect [2] was “one or more years”.

With `N[C@@H](CCC(=O)O)C(=O)O` [L-glutamic acid, L-Glutamic acid] the “stabilization effect … (relative sensitivity)” value [2, 4] was “stabilization effect”.

In the case of `NC(=O)CC[C@H](N)C(=O)O` [L-glutamine, L-Glutamine], the “stabilization effect … (relative sensitivity)” value [2, 4] is reported as “stabilization effect”.

With `NCCCC[C@H](N)C(=O)O` [L-lysine, L-Lysine] the “stabilization effect … (relative sensitivity)” value [2, 4] was “stabilization effect”.

With `O=C(O)[C@@H]1CCCN1` [L-proline, L-Proline] the “stabilization effect … (relative sensitivity)” value [2, 4] was “stabilization effect”.

For `CC(C)[C@H](N)C(=O)O` [L-valine, L-Valine], the “stabilization effect … (relative sensitivity)” value [2, 4] was “stabilization effect”.

In the case of `CCCCCCCCCCCC[N+](C)(C)[O-]` [Lauryldimethylamine oxide], the “Effect of γ-globulin (%)” value [1] is reported as 17.8%.

For `CCCCCCCCCCCC[N+](C)(C)C.[Cl-]` [Lauryltrimethylammonium chloride], the “Effect of γ-globulin (%)” value [1] was 16.7%.

With `O=C(O)c1ccc(SSc2ccc(C(=O)O)cn2)nc1` [Reagent 1, 6,6′-dithiodinicotinic acid] the “albumin value by BCP method, sample Blood serum of healthy parsons” value (shortened to “albumin value … of healthy parsons”) [3] was 38.2, the “albumin value by BCP method, sample GA” value [3, 5] was 7.6 and the “albumin value by BCP method, sample NGA” value [3, 5] was 35.6. For the same compound, the “albumin value by BCP method, sample Blood serum of patients” value (from here on “albumin value by BCP method … of patients”) [3, 5] was 36.7.

In the case of `O=C(O)CCSSCCC(=O)O` [Reagent 2, 3,3′-dithiodipropionic acid], the “albumin value by BCP method, sample GA” value [3, 5] is reported as 7.9, the “albumin value by BCP method, sample NGA” value [3, 5] is reported as 35.7 and the “albumin value by BCP method … of patients” value [3, 5] is reported as 37.0. For the same compound, the “albumin value … of healthy parsons” value [3, 6] was 37.9.

For `O=C(O)c1ccccc1SSc1ccccc1C(=O)O` [Reagent 3, 2,2′-dithiodibenzoic acid], the “effect of pretreatment on decreasing deviation from the immune method” value [3] was “particularly remarkable”, the “albumin value by BCP method, sample GA” value [3, 5] was 7.7 and the “albumin value by BCP method, sample NGA” value [3, 5] was 38.0. The “albumin value by BCP method … of patients” value [3, 5] was 35.0 and the “albumin value … of healthy parsons” value [3, 6] was 40.1.

With `C1CN(SSN2CCOCC2)CCO1` [Reagent 4, 4,4′-dithiodimorpholine] the “effect of pretreatment on decreasing deviation from the immune method” value [3] was “particularly remarkable”, the “albumin value by BCP method, sample GA” value [3, 5] was 7.7 and the “albumin value by BCP method, sample NGA” value [3, 5] was 39.5. The “albumin value by BCP method … of patients” value [3, 5] was 31.3 and the “albumin value … of healthy parsons” value [3, 6] was 41.3.

For `O=C(O)c1cc(SSc2ccc([N+](=O)[O-])c(C(=O)O)c2)ccc1[N+](=O)[O-]` [Reagent 5, 5,5′-dithiobis-(2-nitrobenzoic acid)], the “effect of pretreatment on decreasing deviation from the immune method” value [3] was “particularly remarkable”, the “albumin value by BCP method, sample GA” value [3, 5] was 8.7 and the “albumin value by BCP method, sample NGA” value [3, 5] was 38.4. For the same compound, the “albumin value by BCP method … of patients” value [3, 5] was 35.5 and the “albumin value … of healthy parsons” value [3, 6] was 38.3.

For `Oc1ccc2cc(SSc3ccc4cc(O)ccc4c3)ccc2c1` [Reagent 6, 2,2′-dihydroxy-6,6′-dinaphthyl disulfide], the “effect of pretreatment on decreasing deviation from the immune method” value [3] was “particularly remarkable”, the “albumin value by BCP method, sample GA” value [3, 5] was 7.6 and the “albumin value by BCP method, sample NGA” value [3, 5] was 36.9. The “albumin value by BCP method … of patients” value [3, 5] was 37.7 and the “albumin value … of healthy parsons” value [3, 6] was 39.1.

`c1ccc(SSc2ccccn2)nc1` [Reagent 7, 2,2′-dithiopyridine] was tested, and the “effect of pretreatment on decreasing deviation from the immune method” value [3] was “particularly remarkable”, the “albumin value by BCP method, sample GA” value [3, 5] was 7.8 and the “albumin value by BCP method, sample NGA” value [3, 5] was 36.8. For the same compound, the “albumin value by BCP method … of patients” value [3, 5] was 36.8 and the “albumin value … of healthy parsons” value [3, 6] was 38.9.

For `c1cc(SSc2ccncc2)ccn1` [Reagent 8, 4,4′-dithiopyridine], the “effect of pretreatment on decreasing deviation from the immune method” value [3] was “particularly remarkable”, the “albumin value by BCP method, sample GA” value [3, 5] was 7.5 and the “albumin value by BCP method, sample NGA” value [3, 5] was 36.2. The “albumin value by BCP method … of patients” value [3, 5] was 36.2 and the “albumin value … of healthy parsons” value [3, 6] was 38.8.

In the case of `CCCCCCCCCCCCOS(=O)(=O)[O-].[Na+]` [Reagent 9, sodium lauryl sulfate], the “albumin value … of healthy parsons” value [3] is reported as 43.7, the “effect of pretreatment on decreasing deviation from the immune method” value [3] is reported as “particularly remarkable” and the “albumin value by BCP method, sample GA” value [3, 5] is reported as 7.8. The “albumin value by BCP method, sample NGA” value [3, 5] was 37.4 and the “albumin value by BCP method … of patients” value [3, 5] was 40.7.

With `N.N.O=S(=O)(O)O` [ammonium sulfate, Ammonium sulfate] the “stabilization effect … (relative sensitivity)” value [2, 4] was “stabilization effect”.

`[Cl-].[Cl-].[Mg+2]` [magnesium chloride, Magnesium chloride] was tested, and the “stabilization effect … (relative sensitivity)” value [2, 4] was “stabilization effect”.

`OC[C@@H](O)[C@@H](O)[C@H](O)[C@H](O)CO` [mannitol, Mannitol] was tested, and the “stabilization effect … (relative sensitivity)” value [2, 4] was “stabilization effect”.

`CNCC(=O)O` [sarcosine, Sarcosine] was tested, and the “decrease in performance of glycated amino acid assay reagent” value [2] was “almost no decrease in performance”, the “strength of stabilization effect” value [2, 4] was “particularly strong stabilization effect” and the “stabilization effect … (relative sensitivity)” value [2, 4] was “stabilization effect”. The storage stability effect [2] was “one or more years”.

With `OC[C@@H](O)[C@@H](O)[C@H](O)[C@@H](O)CO` [sorbitol, Sorbitol] the “stabilization effect … (relative sensitivity)” value [2, 4] was “stabilization effect”.

In the case of `OC[C@H]1O[C@@](CO)(O[C@H]2O[C@H](CO)[C@@H](O)[C@H](O)[C@H]2O)[C@@H](O)[C@@H]1O` [sucrose, Sucrose], the “stabilization effect … (relative sensitivity)” value [2, 4] is reported as “stabilization effect”.

`OC[C@H]1O[C@H](O[C@H]2O[C@H](CO)[C@@H](O)[C@H](O)[C@H]2O)[C@H](O)[C@@H](O)[C@@H]1O` [trehalose, Trehalose] was tested, and the “stabilization effect … (relative sensitivity)” value [2, 4] was “stabilization effect”.
